# Read-outs that look alike come from different tables or passages of the source.
# Assays:
# [1] = target: T1, α-amylase prepared from human saliva (Homo sapiens, UniProt P0DUB6); assay: Inhibition of the activity of α-amylase (reducing sugar from soluble starch, Bernfeld method); assay type: biochemical
# T1 construct: α-amylase prepared from human saliva; purchased Sigma Co; host or cells: human saliva
# T1 sequence (P0DUB6 16-511): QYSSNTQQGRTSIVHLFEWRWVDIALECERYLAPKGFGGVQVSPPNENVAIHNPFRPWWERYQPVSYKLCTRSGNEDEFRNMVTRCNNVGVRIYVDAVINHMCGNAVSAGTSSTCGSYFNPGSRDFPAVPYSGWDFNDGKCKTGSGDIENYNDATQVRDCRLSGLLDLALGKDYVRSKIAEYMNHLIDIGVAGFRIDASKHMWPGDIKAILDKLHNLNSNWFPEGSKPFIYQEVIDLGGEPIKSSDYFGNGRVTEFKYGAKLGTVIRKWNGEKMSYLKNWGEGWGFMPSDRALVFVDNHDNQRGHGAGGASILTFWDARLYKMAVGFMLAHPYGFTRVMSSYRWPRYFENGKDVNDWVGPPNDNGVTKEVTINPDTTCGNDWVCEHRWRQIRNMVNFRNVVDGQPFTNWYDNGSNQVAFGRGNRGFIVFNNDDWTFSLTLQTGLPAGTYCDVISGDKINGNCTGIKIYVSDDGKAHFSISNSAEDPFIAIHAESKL
# Protocol: The enzyme used here was a product of α-amylase prepared from human saliva and supplied by Sigma Co.
# A 150 µl of the enzyme solution (0.44 U/ml in a buffer solution) was added to 1230 µl of the sample solution and the mixture was incubated at 37°C for 10 minutes. Thereafter, the sample solution was admixed with 120 µl of a solution of soluble starch as the substrate so as to have a final concentration of the substrate of 2.0 mg/ml to effect the reaction at 37°C. A 200 µl aliquot of the solution was taken in every 3 minutes from the solution while the reaction was proceeding and the reducing sugar produced therein was determined by the measurement of the absorbance at a wave-length of 540 nm according to the method of Bernfeld described in Meth. […] The value of the absorbance was converted by calculation into the amount of maltose present and from this the reaction velocity was calculated according to the conventional procedure.
# [2] = Acute toxicity in mice (LD50); settings: mouse, in vivo, ip; intraperitoneal administration, ICR mice, Van der Waerden method; read-out: LD₅₀
# Protocol: An animal test was conducted by using ICR mice as the test animals to examine the acute toxicity of the inventive inhibitive agent against the activity of α-amylase. The values of LD₅₀ calculated according to the Van der Waerdrn method within the confidence limit were: 2412 mg/kg in the oral administration of the same crude mixture of catechin compounds as used in Example 2; 55.2 mg/kg in the intraperitoneal administration of a crude mixture of theaflavin compounds of the composition shown in Table 5 below; and 150 mg/kg in the intraperitoneal administration of epigallocatechin gallate.
# [3] = human saliva α-amylase, 10 min preincubation at 37°C, soluble starch 2.0 mg/ml, read-out: Concentration for 50% inhibition
SMILES,IC50 [1],"IC50 [1, 3]",LD50 [2]
"O=C(O)c1cc(O)c(O)c(O)c1 [Gallic acid, reference compound]",> 1000 µM,,
"O=C(O[C@@H]1Cc2c(O)cc(O)cc2O[C@@H]1c1cc(O)c(O)c(O)c1)c1cc(O)c(O)c(O)c1 [Epigallocatechin gallate, (-)epigallocatechin gallate]",,260 µM,150 mg/kg
"Oc1cc(O)c2c(c1)O[C@H](c1ccc(O)c(O)c1)[C@H](O)C2 [Epicatechin, (-)epicatechin]",,> 1000 µM,
"O=C(O[C@@H]1Cc2c(O)cc(O)cc2O[C@@H]1c1cc(O)c(=O)c2c(O)c(O)cc([C@H]3Oc4cc(O)cc(O)c4C[C@H]3O)c2c1)c1cc(O)c(O)c(O)c1 [Theaflavin monogallate A, theaflavin monogallate A]",,1 µM,
"Oc1cc(O)c2c(c1)O[C@H](c1cc(O)c(O)c(O)c1)[C@H](O)C2 [Epicagallcatechin, (-)epigallocatechin]",,> 1000 µM,
"O=c1c(O)cc([C@H]2Oc3cc(O)cc(O)c3C[C@H]2O)cc2c([C@H]3Oc4cc(O)cc(O)c4C[C@H]3O)cc(O)c(O)c12 [Free theaflavin, free theaflavin]",,18 µM,
"O=C(O[C@@H]1Cc2c(O)cc(O)cc2O[C@@H]1c1cc(O)c(O)c2c(=O)c(O)cc([C@H]3Oc4cc(O)cc(O)c4C[C@H]3O)cc12)c1cc(O)c(O)c(O)c1 [Theaflavin monogallate B, theaflavin monogallate B]",,1.7 µM,
"O=C(O[C@@H]1Cc2c(O)cc(O)cc2O[C@@H]1c1ccc(O)c(O)c1)c1cc(O)c(O)c(O)c1 [Epicatechin gallate, (-)epicatechin gallate]",,130 µM,

# Reference: EP0423419B1, “Inhibitive agent against activity of alpha-amylase” (MITSUI NORIN CO., LTD., priority 1989, dated 1991)
